Source: ChEMBL document CHEMBL1131383, “Syntheses and biological evaluation of indolocarbazoles, analogues of rebeccamycin, modified at the imide heterocycle” (J Med Chem, 1998)
pIC50: −log10 of the molar value. ≈ marks a conversion by molar mass, not a printed value.

Tests used:
CEM-SS [1] = assay: Cytotoxic concentration is tested against CEM-SS cells; format: functional; settings: Homo sapiens
P388CPT5 = assay: Antiproliferative activity measured against P388CPT5 cells resistant to Topoisomerase I inhibitor Camptothecin; format: functional, cell-based; settings: Mus musculus
P388 = assay: Antiproliferative activity measured against P388 Leukemia cells; format: functional, cell-based, Mus musculus
Protein kinase C (PKC) = assay: Inhibition of Protein kinase C; format: protein assay
[2] = Selectivity was measured [Selectivity = (CC50/IC50) against HIV-1 infected CEM-SS cells]; format: functional
Bacillus cereus [3] = assay: Antimicrobial activity is tested against Bacillus cereus; format: functional
[4] = molecular target: T1, DNA topoisomerase 1 (Homo sapiens) (UniProt P11387); assay: Inhibition of human Topoisomerase I
T1 sequence (whole entry): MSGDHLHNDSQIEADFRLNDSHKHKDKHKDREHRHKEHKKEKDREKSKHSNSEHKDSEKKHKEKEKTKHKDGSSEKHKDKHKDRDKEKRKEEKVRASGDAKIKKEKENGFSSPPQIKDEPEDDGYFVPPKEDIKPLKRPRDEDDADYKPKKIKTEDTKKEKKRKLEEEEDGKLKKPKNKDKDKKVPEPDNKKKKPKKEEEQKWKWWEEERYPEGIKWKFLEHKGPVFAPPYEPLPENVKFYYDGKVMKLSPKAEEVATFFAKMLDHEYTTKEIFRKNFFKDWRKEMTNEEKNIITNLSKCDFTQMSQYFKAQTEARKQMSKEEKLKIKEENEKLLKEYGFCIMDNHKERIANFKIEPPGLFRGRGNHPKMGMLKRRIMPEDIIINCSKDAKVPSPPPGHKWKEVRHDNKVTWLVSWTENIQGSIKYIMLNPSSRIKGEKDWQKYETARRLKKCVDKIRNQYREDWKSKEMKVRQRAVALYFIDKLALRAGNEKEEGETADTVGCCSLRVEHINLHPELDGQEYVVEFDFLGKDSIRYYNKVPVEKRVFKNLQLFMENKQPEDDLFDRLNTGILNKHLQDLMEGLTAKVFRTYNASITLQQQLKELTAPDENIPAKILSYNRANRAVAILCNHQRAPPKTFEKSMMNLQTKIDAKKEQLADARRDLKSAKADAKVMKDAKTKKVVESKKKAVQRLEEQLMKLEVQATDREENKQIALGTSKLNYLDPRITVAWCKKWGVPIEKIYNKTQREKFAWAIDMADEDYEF

CEM-SS [5] = assay: Inhibitory concentration is tested in HIV-1 Lai-infected CEM-SS cells; format: functional, cell-based; settings: Homo sapiens
Streptomyces chartreusis = assay: In Vitro growth inhibitory effect of compounds against Gram-Positive Bacteria Streptomyces chartreusis NRRL11407; format: functional
B16 = assay: Antiproliferative activity measured against murine B16 melanoma cells; format: functional, cell-based; settings: Mus musculus
Bacillus cereus [6] = assay: In Vitro growth inhibitory effect of compounds against Gram-Positive Bacteria Bacillus cereus ATCC 14579; format: functional

| SMILES | pIC50 (P388CPT5) | pIC50 (P388; Mus musculus, P388) | IC50 (Protein kinase C (PKC)) [µM] | MIC (Bacillus cereus [3]) [µM] | MIC [4] [µM] | pIC50 (CEM-SS [5]) | pIC50 (B16) | pIC50 (P388; p388) | CC50 (CEM-SS [1]) [µM] | Selectivity index [2] | Inhibition zone (Streptomyces chartreusis) [mm] | Inhibition zone (Bacillus cereus [6]) [mm] |
| --- | --- | --- | --- | --- | --- | --- | --- | --- | --- | --- | --- | --- |
| CO[C@H]1[C@H](O)[C@@H](O)[C@H](n2c3ccccc3c3c4c(c5c6ccccc6[nH]c5c32)C(=O)OC4=O)O[C@@H]1CO | < 4.70 | 5.20 |  | > 99 | 1.99 (≈ 1 µg/mL) | < 5.70 | 4.76 |  | > 1.98 |  | 7 |  |
| CO[C@H]1[C@H](O)[C@@H](O)[C@H](n2c3c(Cl)cccc3c3c4c(c5c6cccc(Cl)c6[nH]c5c32)C(=O)N(C)C4=O)O[C@@H]1CO (stereo in doubt; A) | 6.22 |  | > 100 | > 85 |  | 5.30 |  | 6.21 | 8.06 | 1.6 |  |  |
| CO[C@H]1[C@H](O)[C@@H](O)[C@H](n2c3ccccc3c3c4c(c5c6ccccc6[nH]c5c32)C(=O)NC4=O)O[C@@H]1CO | < 4.70 | 6.16 |  | > 100 | 0.59 (≈ 0.296 µg/mL) | 6.80 | 6.05 |  | 0.9 | 5.6 |  | 7 |
| CO[C@H]1[C@H](O)[C@@H](O)[C@H](n2c3ccc(Br)cc3c3c4c(c5c6cc(Br)ccc6[nH]c5c32)C(=O)OC4=O)O[C@@H]1CO | 5.12 | 6.04 |  | > 75 | 1.52 (≈ 1 µg/mL) | 5.31 | 4.89 |  | 9.39 | 1.9 |  |  |
| CO[C@H]1[C@H](O)[C@@H](O)[C@H](n2c3ccccc3c3c4c(c5c6ccccc6n(C)c5c32)C(=O)OC4=O)O[C@@H]1CO |  | < 4.72 |  | > 97 | > 19 | < 5.01 | 4.51 |  | > 9.7 |  | 7 |  |
| CO[C@H]1[C@H](O)[C@@H](O)[C@H](n2c3c(Cl)cccc3c3c4c(c5c6cccc(Cl)c6[nH]c5c32)C(=O)N(C)C4)O[C@@H]1CO.CO[C@H]1[C@H](O)[C@@H](O)[C@H](n2c3c(Cl)cccc3c3c4c(c5c6cccc(Cl)c6[nH]c5c32)CN(C)C4=O)O[C@@H]1CO | 5.39 | 6.28 |  | > 88 | 17.6 | 6.51 | 6.32 |  | 1.72 | 5.5 | 9 |  |
| CO[C@H]1[C@H](OC=O)[C@@H](O)[C@H](n2c3ccccc3c3c4c(c5c6ccccc6[nH]c5c32)C(=O)OC4=O)O[C@@H]1CO |  | < 4.72 |  | > 94 | 5.7 (≈ 3.02 µg/mL) | < 5.03 |  |  | > 9.4 |  | 12 | 8 |

Now from value to molecule, other results behind:

| pIC50 (P388CPT5) | pIC50 (P388; Mus musculus, P388) | IC50 (Protein kinase C (PKC)) [µM] | MIC (Bacillus cereus [3]) [µM] | MIC [4] [µM] | pIC50 (CEM-SS [5]) | pIC50 (B16) | pIC50 (P388; p388) | SMILES | CC50 (CEM-SS [1]) [µM] | Selectivity index [2] | Inhibition zone (Streptomyces chartreusis) [mm] | Inhibition zone (Bacillus cereus [6]) [mm] |
| --- | --- | --- | --- | --- | --- | --- | --- | --- | --- | --- | --- | --- |
| 5.52 | < 3.90 | 28.8 | 5.6 | 1.8 | 6.44 |  |  | CO[C@H]1[C@H](O)[C@@H](O)[C@H](n2c3c(Cl)cccc3c3c4c(c5c6cccc(Cl)c6[nH]c5c32)C(=O)NC4)O[C@@H]1CO.CO[C@H]1[C@H](O)[C@@H](O)[C@H](n2c3c(Cl)cccc3c3c4c(c5c6cccc(Cl)c6[nH]c5c32)CNC4=O)O[C@@H]1CO | 1.15 | 3.2 |  |  |
| < 4.70 | 5.47 |  | 24 | 19.9 | 6.22 | 5.30 |  | CO[C@H]1[C@H](O)[C@@H](O)[C@H](n2c3ccccc3c3c4c(c5c6ccccc6[nH]c5c32)C(=O)N(C)C4)O[C@@H]1CO.CO[C@H]1[C@H](O)[C@@H](O)[C@H](n2c3ccccc3c3c4c(c5c6ccccc6[nH]c5c32)CN(C)C4=O)O[C@@H]1CO | 8.38 | 14 | 9 | 9 |
| 6.15 | 5.97 | > 100 | 1.55 (≈ 0.799 µg/mL) |  | 5.38 |  |  | CO[C@H]1[C@H](O)[C@@H](O)[C@H](n2c3ccccc3c3c4c(c5c6ccccc6[nH]c5c32)C(=O)N(C)C4=O)O[C@@H]1CO | 7.96 | 1.9 |  |  |
| 4.98 | 5.91 |  | 10.9 (≈ 6.22 µg/mL) |  | 6.28 |  |  | CO[C@H]1[C@H](O)[C@@H](O)[C@H](n2c3c(Cl)cccc3c3c4c(c5c6cccc(Cl)c6[nH]c5c32)C(=O)NC4=O)O[C@@H]1CO [REBECCAMYCIN] | 1.05 | 2 | 9 | 9 |
| 5.52 |  | 3.7 | 25 | 0.02 | 5.39 |  |  | CO[C@H]1[C@H](O)[C@@H](O)[C@H](n2c3ccccc3c3c4c(c5c6ccccc6[nH]c5c32)C(=O)NC4)O[C@@H]1CO.CO[C@H]1[C@H](O)[C@@H](O)[C@H](n2c3ccccc3c3c4c(c5c6ccccc6[nH]c5c32)CNC4=O)O[C@@H]1CO | 14.3 | 3.5 |  |  |
|  | < 4.72 |  | 94 (≈ 49.8 µg/mL) | > 19 | < 4.72 | 5.10 |  | CO[C@H]1[C@H](O)[C@@H](O)[C@H](n2c3ccccc3c3c4c(c5c6ccccc6n(C)c5c32)C(=O)N(C)C4=O)O[C@@H]1CO | > 19 |  | 12 | 8 |
